This note sets out measurements from patent US8110543B2, “Anti-invasive and anti-angiogenic compositions” (Angstrom Pharmaceuticals, Inc., priority 1997, dated 2012).

One series addresses plasmin (Homo sapiens, UniProt P00747). The series can be described thus: Plasmin activity. Type of series: biochemical.
In another series the test system is MDA-MB-231. Briefly: In vitro proliferation, MDA-MB-231 cells. The format is cell-based, human. The procedure: (§1) Å6 was also tested for its ability to inhibit the proliferation of cells other than endothelial cells in vitro.
The test system of series [1] is PC-3 and Mat B III tumor cells.
The test system of the next series is 3LL cells. Briefly: Tumor angiogenesis (microvessel density) in 3LL model. The format is in vivo, Mice. To be noted: 100-250 mg/kg/day; compared to controls. The procedure: Angiogenesis is measured by determining microvessel density using immunostaining for CD31 (also known as platelet-endothelial cell adhesion molecule or PECAM). Results are reported as the average microvessel density of 5 fields each from 5 different sections (Penfold et al., 1996). Typically, the whole tumor is excised, sectioned and the sections examined histologically for microvessel density using appropriate stains or labels for other markers.
Angiogenesis induced by tumor growth and metastasis in vivo is examined in the models systems described above. Mice injected with 3LL cells are treated either with peptide or with vehicle and are sacrificed at various time points. Angiogenesis is assessed by determining microvessel density (MVD) using an antibody specific for microvascular endothelium or other markers of growing blood vessels, such as PECAM (CD31). Such an antibody is employed in conventional immunohistological methods to immunostain tissue sections as described by Penfold et al., supra. A large number of such antibodies is commercially available, for example the JC70 mAb. The MVD are correlated with other measures of tumor behavior including lymph node status and primary tumor size and rate of growth. In humans as reported by Penfold et al., supra, tumor MVD correlates with lymph node metastasis and is independent of tumor size, growth rate or type of histological differentiation.
The compounds are given i.v., i.p., or by osmotic minipump Typical dosages are 100-250 mg/kg/day. At various time points, two animals are sacrificed, and the tumor tissue and surrounding tissue is prepared for histological examination. Results are reported as the average microvessel density of 5 fields each from 5 different sections. The following seven compounds are tested: Ac-[…]-Am (SEQ ID NO:2), Ac-[…]-Am (SEQ ID NO: 6) (disubstitution variant at positions 3 and 4), Ac-[…]-Am (SEQ ID NO: 7) (disubstitution variant at positions 7 and 8), Ac-[…]-Am (SEQ ID NO: 8) (substitution variant at position 1), Ac-PSSPPEE-Am (SEQ ID NO: 4) (deletion variant, position 1 of SEQ ID NO:2 deleted), Ac-KPSSPPE-Am (SEQ ID NO: 5) (deletion variant, position 8 of SEQ ID NO:2 deleted), and Ac-[…]-Am (SEQ ID NO:1).

A further series has as its system U87. The series can be described thus: In vitro proliferation, U87 cells. Type of series: cell-based, human. The procedure: as §1
Anti-angiogenic therapy is expected to produce both anti-proliferative and pro-apoptotic effects that would “prime” the tumor chemotherapy with these alkylating agents. The proliferative index in the U87 tumors was evaluated using Ki-67 staining followed by digitization of the staining intensity and quantitation.

For another series, the system named is HepG2. Briefly: In vitro proliferation, HepG2 cells. Type of series: cell-based. The procedure: as §1
The conditions of series [2]: cynomolgus monkey, in vivo, iv, 37.5 mg/kg.
Source text: An LC/MS assay developed for the detection of Å6 in plasma has been validated for mouse and monkey plasma.
The target of a further series is uPAR (Homo sapiens, UniProt Q03405). The series can be described thus: Binding of uPA to uPAR.
The test system of the next series is 3LL. Briefly: Matrigel invasion assay, 3LL cells. Type of series: cell-based, mouse. To be noted: all the cell lines tested. The procedure: (§2) Several peptides were tested for anti-invasive capacity in a Matrigel® invasion assay system as indicated above (Kleinman et al., supra; Parish et al., supra). Several invasive human tumor lines (PC-3, MDA-MB-231) and non-human tumors (3LL, Mat B-III) were examined. The rat breast cancer line Mat B III and the human prostate cancer line PC-3 were initially used.
(§3) Tumor cells (5×10^5/mL, in a volume of 200 μL) in serum-free RPMI 1640 medium were added to a disposable transwell invasion chamber coated with Matrigel® (Becton Dickinson, Lincoln Park, N.J.). The invasion chambers were placed in 24-well tissue culture plates filled with serum-free RPMI-1640 and the plates were placed in an atmosphere of 5% CO2 in humidified air at 37° C. for 48-72 hours. The chambers were then removed, inverted, and the cells which had invaded (and now appeared on the bottom face of the invasion chamber) were fixed and stained using Diff-Quick® (Scientific Products). Cells were counted in 10 different fields on each filter and an average obtained.

For series [3] the following is noted: mouse, in vivo, iv, 37.5 mg/kg. The procedure: Protein binding studies are presently underway.
Pharmacokinetic analysis was carried out by Gilbert Lam, MicroConstants.

The test system of series [4] is rat breast cancer line Mat B III. Briefly: Matrigel invasion assay, Mat B-III cells. Type of series: cell-based. To be noted: FIG. 1 (5 μM), FIG. 7, FIG. 8. The procedure:
as §2, §3

Series [5] deals with bFGF-induced angiogenesis. The series can be described thus: Chick CAM angiogenesis assay. Type of series: in vivo. The procedure: Major vessels were quantitated at this time.
A: Control CAM; B: CAM treated with 1.2 μg/disk of Å6.
Å6 was tested for its effect on bFGF-induced angiogenesis in a 7 day old chick CAM assay.

The clearance is the volume of plasma or blood freed of the substance per unit of time. By half-life is commonly meant the time needed for the level to fall by half in the phase considered.

“Also recorded” adds a separate entry of the source. Where two headings read alike, the source gives them in different places.

Sequence of uPAR (Q03405 23-305 limits assumed): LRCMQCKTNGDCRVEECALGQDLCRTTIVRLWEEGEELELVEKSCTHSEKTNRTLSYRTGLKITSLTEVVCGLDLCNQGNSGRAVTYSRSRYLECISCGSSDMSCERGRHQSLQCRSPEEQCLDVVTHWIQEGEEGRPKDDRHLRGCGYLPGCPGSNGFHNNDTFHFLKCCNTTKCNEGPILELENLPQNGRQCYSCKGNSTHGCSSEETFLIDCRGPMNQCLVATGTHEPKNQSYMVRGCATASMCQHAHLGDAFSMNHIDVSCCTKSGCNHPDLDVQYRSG
Sequence of plasmin (P00747 97-580 limits assumed, species assumed): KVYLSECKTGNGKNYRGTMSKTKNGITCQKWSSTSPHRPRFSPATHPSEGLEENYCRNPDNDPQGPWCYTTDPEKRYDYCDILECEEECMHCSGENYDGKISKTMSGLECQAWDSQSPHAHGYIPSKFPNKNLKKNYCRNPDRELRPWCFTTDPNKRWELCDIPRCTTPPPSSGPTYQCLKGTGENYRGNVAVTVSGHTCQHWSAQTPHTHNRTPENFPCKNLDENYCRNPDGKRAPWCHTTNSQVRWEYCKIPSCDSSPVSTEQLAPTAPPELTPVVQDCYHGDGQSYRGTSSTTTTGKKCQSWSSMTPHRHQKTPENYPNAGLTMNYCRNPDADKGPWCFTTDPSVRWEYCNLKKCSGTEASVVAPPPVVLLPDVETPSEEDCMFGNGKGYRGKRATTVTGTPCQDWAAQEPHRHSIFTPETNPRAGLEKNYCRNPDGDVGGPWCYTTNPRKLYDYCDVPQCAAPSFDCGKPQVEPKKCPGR
Sequence of plasmin (P00747 581-810 limits assumed, species assumed): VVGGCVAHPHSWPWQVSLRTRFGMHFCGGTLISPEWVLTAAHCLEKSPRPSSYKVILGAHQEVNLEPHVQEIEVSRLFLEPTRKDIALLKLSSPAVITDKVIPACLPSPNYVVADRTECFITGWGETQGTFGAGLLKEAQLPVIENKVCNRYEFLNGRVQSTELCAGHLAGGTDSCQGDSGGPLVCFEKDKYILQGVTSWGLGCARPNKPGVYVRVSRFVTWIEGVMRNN

Regarding “Ac-KPSSPPEE-NH2 [Å6, CH3CO-Lys-Pro-Ser-Ser-Pro-Pro-Glu-Glu-NH2]”, the “effect on the activity of plasmin directly” value at plasmin is on record as “did not affect”. Besides, the “anti-proliferative effect, MDA-MB-231” value in the series on MDA-MB-231 is recorded as “No anti-proliferative effects”. Further, the “cytotoxicity to the cells” value in [1] was “not cytotoxic”. The “inhibition of cell proliferation” value in series [1] (tumor cells of the invasion assay) is “nor did it inhibit cell proliferation”. Besides, the “number of microvessels in the region of the primary tumor” value with 3LL cells is “significant reduction”. Further, in the series with U87, the “anti-proliferative effect, U87” value is “No anti-proliferative effects; also recorded: did not inhibit”; the “potentiation of the anti-proliferative activity of CDDP against U87 cells” value is listed as “did not potentiate”; the “potentiation of the pro-apoptotic activity of CDDP” value is given as “nor did it potentiate”. The “anti-proliferative effect, HepG2” value with HepG2 is listed as “No anti-proliferative effects”. In series [2], this substance gave a clearance of 0.7 mL/min/kg and a half-life of 24 min. For the same substance, the “inhibition of binding of uPA to uPAR” value at uPAR was “no effect”. Besides, the “invasion of 3LL cells through Matrigel” value in the series on 3LL is reported as “inhibited”. In series [3], this substance had a clearance of 33.3 mL/min/kg and a half-life of 12 min. In [4], the “invasion of Mat B-III cells through Matrigel” value is recorded as “optimal; also recorded: inhibits the invasion”. Further, the “invasion of Mat B-III cells through Matrigel” value in [4] (listed as Ac-KPSSPPEE-Am) was “inhibited the invasion”. Moreover, the “bFGF-induced angiogenesis (major vessel formation) in CAM” value in series [5] (7 day old chick CAM, 4 days) is “inhibits angiogenesis”. In series [5] (qualitative, stereomicroscopic images), the “branching morphogenesis in CAM” value was “inhibited branching morphogenesis”.
